Laboratory results as given in patent publication US20180370912A1, “COMPOUNDS AND METHODS FOR TREATING DISEASES MEDIATED BY PROTEIN DISULFIDE ISOMERASE” (Beth Israel Deaconess Medical Center, Inc., priority 2017, published 2018).

What was measured:
[1] = target: T1, PDI fragments abb′ and b′xa′ (Homo sapiens, UniProt P07237); test: Di-eosin-GSSG reductase assay of PDI fragments; format: biochemical; conditions: 30 μM, FIG. 5a
T1 construct: abb′ (residues 1-331), or b′xa′ (residues 219-462); His; made in house; host or cells: Escherichia coli Origami B (DE3), pET-15b
Description: (§1) The probe di-eosin glutathione disulfide, di-eosin-GSSG, was prepared as previously described in Raturi, A., Vacratsis, P. O., Seslija, D., Lee, L. & Mutus, B., Biochem J 391, 351-357 (2005). Reductase activity of purified thiol isomerases and PDI domains was monitored in a 96-well fluorescence plate format. PDI, AGHA-PDI, ERpS, ERp57, ERp72 and PDI domains were assayed at 50 nM in the presence or absence of the indicated small molecules, peptides or cathepsin G. The assay included 100 mM potassium phosphate (pH 7.4) containing 2 mM EDTA, 5 μM DTT and 150 nM of the di-eosin GSSG probe. The increase in fluorescence was determined for 20 minutes by excitation at 520 nm and emission at 550 nm in a Synergy Biotek 4. The reduction of 150 nM di-eosin-GSSG by 5 μM DTT in the presence or absence of mentioned small molecules, peptides or proteins served as a negative control.
T1 sequence (P07237 236-479): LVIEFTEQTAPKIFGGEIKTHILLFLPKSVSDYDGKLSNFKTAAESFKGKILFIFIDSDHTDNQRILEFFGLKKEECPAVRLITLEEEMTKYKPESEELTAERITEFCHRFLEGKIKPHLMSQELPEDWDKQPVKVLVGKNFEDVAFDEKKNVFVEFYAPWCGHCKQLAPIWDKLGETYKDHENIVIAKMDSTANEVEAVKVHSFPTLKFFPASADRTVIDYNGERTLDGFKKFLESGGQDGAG

[2] = target: T2, PDI fragments abb′ and b′xa′ (Homo sapiens, UniProt P07237); test: Di-eosin-GSSG reductase assay of PDI fragments; format: biochemical; conditions: 30 μM, FIG. 5a; remark: listed apart in the source
T2 construct: abb′ (residues 1-331), or b′xa′ (residues 219-462); His; made in house; host or cells: Escherichia coli Origami B (DE3), pET-15b
T2 sequence (P07237 18-348): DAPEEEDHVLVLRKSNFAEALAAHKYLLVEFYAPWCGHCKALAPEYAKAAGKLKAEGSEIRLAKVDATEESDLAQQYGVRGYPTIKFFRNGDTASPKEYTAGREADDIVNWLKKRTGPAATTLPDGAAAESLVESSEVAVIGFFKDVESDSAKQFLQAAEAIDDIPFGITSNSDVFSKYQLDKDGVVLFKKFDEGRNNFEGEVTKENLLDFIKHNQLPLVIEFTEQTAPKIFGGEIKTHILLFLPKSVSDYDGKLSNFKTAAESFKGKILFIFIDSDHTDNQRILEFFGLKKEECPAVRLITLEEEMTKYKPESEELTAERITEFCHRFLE
Description: as §1

full-length PDI = target: T3, full-length PDI (Homo sapiens, UniProt P07237); test: Small-angle X-ray scattering (SAXS)
T3 construct: FLAG; made in house; host or cells: Escherichia coli Origami B (DE3), pET-15b
T3 sequence (P07237 18-508): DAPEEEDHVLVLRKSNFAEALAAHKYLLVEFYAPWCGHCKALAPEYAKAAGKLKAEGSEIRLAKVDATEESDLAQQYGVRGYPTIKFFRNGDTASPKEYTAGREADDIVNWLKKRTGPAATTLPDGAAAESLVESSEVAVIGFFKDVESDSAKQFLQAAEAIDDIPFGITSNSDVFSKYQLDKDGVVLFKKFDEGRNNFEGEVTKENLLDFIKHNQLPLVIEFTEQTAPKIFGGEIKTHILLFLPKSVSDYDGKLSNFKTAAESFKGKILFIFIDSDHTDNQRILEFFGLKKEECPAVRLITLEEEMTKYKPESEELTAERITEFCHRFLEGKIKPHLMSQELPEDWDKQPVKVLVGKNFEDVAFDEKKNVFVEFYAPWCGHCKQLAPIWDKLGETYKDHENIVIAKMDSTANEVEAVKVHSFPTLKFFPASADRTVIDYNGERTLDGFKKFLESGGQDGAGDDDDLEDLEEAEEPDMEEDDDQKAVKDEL
Description: Further purification of full-length PDI was achieved by gel filtration. PDI (1.5, 3.0 and 4.5 mg/mL) was dialyzed against 20 mM Tris, 150 mM NaCl, 5% glycerol (pH: 8.0) containing 0.5 mM bepristat 1b or 2b or DMSO control at 4° C. overnight. Evaluation by SAXS was performed on the SIBYLS beamline in the Advanced Light Source using a high throughput data collection method.

thioredoxin = target: T4, thioredoxin (Homo sapiens, UniProt P10599); test: Insulin reductase assay, thiol isomerase selectivity; format: biochemical; conditions: 10-fold IC50, FIG. 2
T4 sequence (P10599 1-105): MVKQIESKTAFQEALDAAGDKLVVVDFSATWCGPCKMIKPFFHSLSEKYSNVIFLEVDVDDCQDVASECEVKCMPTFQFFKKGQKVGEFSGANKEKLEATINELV
Description: (§2) The thiol isomerase-catalyzed reduction of insulin was assayed by measuring the increase in turbidity as detected at an optical density (OD) of 650 nm using a Spectramax M3 (Molecular Devices, Sunnyvale, Calif.). The validation assay consisted of 175 nM of PDI in a solution containing 100 mM potassium phosphate (pH 7.4) containing 0.2 mM bovine insulin, 2 mM EDTA, and 0.3 mM DTT (all purchased from Sigma Aldrich, St. Louis, Mo.), inhibitors were used at the concentrations indicated. The reaction was performed at 25° C. for one hour and thirty minutes. For assays of thiol isomerase selectivity, 11 nM PDI, ERp57 or Thioredoxin, or 33 nM ERpS were assayed in similar buffer conditions as described above and inhibitors were used at the indicated concentration. The reaction was performed at 37° C. for forty-five minutes. For assays of isolated domains studies, 400 nM protein was used, except for a, a′ and ab, in which 800 nM protein was used. The assay was performed in similar buffer conditions as described above. Bepristat 2a and N-(2,4-Dimethoxyphenyl)-N-(1-oxo-2-propyn-1-yl)-2-(2-thienyl)glycyl-glycine ethyl ester (PACMA-31) were used at a final concentration of 15 μM in these studies.

ERp5 = target: T5, ERp5 (Homo sapiens, UniProt Q15084); test: as above; format: biochemical; conditions: 10-fold IC50, FIG. 2
T5 construct: recombinant His-tagged full-length ERp5, ERp72 and PDI domain fragments; His; made in house; host or cells: Escherichia coli Origami B (DE3), pET-15b
T5 sequence (Q15084 20-440): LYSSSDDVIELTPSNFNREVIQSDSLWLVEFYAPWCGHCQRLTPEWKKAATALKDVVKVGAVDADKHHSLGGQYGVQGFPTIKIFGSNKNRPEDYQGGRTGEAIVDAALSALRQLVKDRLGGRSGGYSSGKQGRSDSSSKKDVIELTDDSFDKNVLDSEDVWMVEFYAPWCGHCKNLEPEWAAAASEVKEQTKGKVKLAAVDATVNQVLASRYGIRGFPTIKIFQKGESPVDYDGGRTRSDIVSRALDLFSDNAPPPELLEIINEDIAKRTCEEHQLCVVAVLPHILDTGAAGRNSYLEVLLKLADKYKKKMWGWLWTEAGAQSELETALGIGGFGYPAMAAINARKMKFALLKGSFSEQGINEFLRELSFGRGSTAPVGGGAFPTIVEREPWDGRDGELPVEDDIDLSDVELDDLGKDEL
Description: as §2

| SMILES | di-eosin-GSSG cleavage by b′xa′ fragment [1] | di-eosin-GSSG cleavage by abb′ fragment [2] | PDI conformation by SAXS (full-length PDI) | inhibition of reductase activity of thioredoxin (thioredoxin) | inhibition of reductase activity of ERp5 (ERp5) |
| --- | --- | --- | --- | --- | --- |
| CCOC(=O)c1c(CNCCN(CC)CC)n(-c2ccccc2)c2cc(Br)c(O)cc12 [bepristat 2a] | significantly augmented the catalytic activity | failed to augment activity | more compact conformation | – | – |
| C#CC(=O)N(c1ccc(OC)cc1OC)C(C(=O)NCC(=O)OCC)c1cccs1 (centres unmarked) [PACMA-31, N-(2,4-Dimethoxyphenyl)-N-(1-oxo-2-propyn-1-yl)-2-(2-thienyl)glycyl-glycine ethyl ester, reference compound] | – | – | – | demonstrated inhibitory activity | demonstrated inhibitory activity |
